Results published in US6407091B1, “β-lactamase inhibiting compounds” (Research Corporation Technologies, Inc., priority 1999, dated 2002).
Counter-ions that a name gives are not always drawn. Like-named read-outs stand apart in the source and are kept apart here.

Legend:
[1] = molecular target: Class C β-lactamase of Enterobacter cloacae P-99 (Enterobacter cloacae, UniProt P05364); experiment: IC50 for inhibition of Class C β-lactamase of Enterobacter cloacae P-99 (nitrocefin hydrolysis); type: biochemical
Description: (§1) Representative compounds of formula I were evaluated as inhibitors of the Class C β-lactamase of Enterobacter cloacae P-99, a cephalosporinase, and TEM-1, a penicillinase, by relative IC50 analysis. The IC50 value represents the concentration of inhibitor required to effect a 50% loss of activity of free enzyme. The IC50 value of each compound was determined as follows. Following a 10 minute incubation of a dilute solution of enzyme (2.56 nM) and inhibitor (<0.64 mM), a […] of this incubation mixture was then further diluted into 1 mL nitrocefin solution, and the rate of hydrolysis was measured during a 1 minute period by monitoring the absorbance of nitrocefin as a function of time.

TEM-1, a penicillinase = TEM-1, a penicillinase (Escherichia coli, UniProt P62593); experiment: IC50 for inhibition of TEM-1 β-lactamase (nitrocefin hydrolysis); type: biochemical; settings: read-out: IC50 Values for Inhibition of β-lactamase Derived from TEM-1
Description: as §1

[2] = read-out: IC50 Values for Inhibition of β-lactamase Derived from P-99
[3] = Table 1, 10 minute incubation of enzyme (2.56 nM) and inhibitor, nitrocefin hydrolysis, relative to tazobactam standard, read-out: IC50 Values for Inhibition of β-lactamase Derived from P-99
[4] = Table 1, 10 minute incubation of enzyme (2.56 nM) and inhibitor, nitrocefin hydrolysis, relative to tazobactam standard
[5] = Table 2, compounds of formula IV, procedure similar to Table 1
[6] = Table 2, compounds of formula IV, procedure similar to Table 1, read-out: IC50 Values for Inhibition of β-lactamase Derived from P-99

Sequence of TEM-1, a penicillinase (P62593 24-286 limits assumed): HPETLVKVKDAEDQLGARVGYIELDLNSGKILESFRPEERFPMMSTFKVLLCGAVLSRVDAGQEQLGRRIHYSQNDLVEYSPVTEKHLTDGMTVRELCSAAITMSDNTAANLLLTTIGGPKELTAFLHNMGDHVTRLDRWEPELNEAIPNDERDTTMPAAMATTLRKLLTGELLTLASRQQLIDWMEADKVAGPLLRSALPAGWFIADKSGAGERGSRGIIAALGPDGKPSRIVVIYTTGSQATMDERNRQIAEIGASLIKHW
Sequence of Class C β-lactamase of Enterobacter cloacae P-99 (P05364 21-381): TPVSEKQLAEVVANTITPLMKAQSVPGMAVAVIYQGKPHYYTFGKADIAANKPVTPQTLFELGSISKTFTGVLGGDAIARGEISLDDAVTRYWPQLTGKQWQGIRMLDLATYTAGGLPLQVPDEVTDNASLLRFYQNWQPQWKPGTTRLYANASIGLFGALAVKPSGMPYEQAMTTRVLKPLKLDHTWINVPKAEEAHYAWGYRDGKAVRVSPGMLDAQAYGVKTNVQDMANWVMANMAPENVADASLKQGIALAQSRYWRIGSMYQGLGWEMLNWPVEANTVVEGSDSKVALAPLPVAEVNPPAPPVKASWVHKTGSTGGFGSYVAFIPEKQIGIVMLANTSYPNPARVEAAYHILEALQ

Compound: C=C1C(COC(C)=O)=C(C(=O)O)N2C(=O)C(=Cc3ccccn3)C2S1(=O)=O (stereo not shown) [Compound 6a, Sodium Salt of 7-[(Z)-(2′-Pyridyl)methylene]-2-(exomethylidene)cephalosporanic Acid Sulfone]
- IC50 [1]: 0.165 µM

Compound: C=C1C(COC(C)=O)=C(C(=O)O)N2C(=O)C(=CC(=O)OC(C)(C)C)C2S1(=O)=O (stereo not shown) [Compound 6b, Sodium Salt of 7-[(Z)-(tert-Butoxycarbonyl)methylene]-2-(exomethylidene)cephalosporinate Sulfone]
- IC50 [1, 2]: 1.55 µM

Compound: C=C1C(C)=C(C(=O)O)N2C(=O)C(=Cc3ccccn3)C2S1(=O)=O (stereo not shown) [Compound 6c, Sodium Salt of 7-((Z)-(2″-Pyridinyl)methylene]-3′-desacetoxy-2-(exomethylidene)cephalosporinate Sulfone]
- IC50 [1, 2]: 0.039 µM

Compound: C=C1C(C)=C(C(=O)O)N2C(=O)C(=CC(=O)OC(C)(C)C)C2S1(=O)=O (stereo not shown) [Compound 6d, Sodium Salt of 7-[(Z)-(tert-Butoxycarbonyl)methylene]-3′-desacetoxy-2(exomethylidene)cephalosporinate Sulfone]
- IC50 [1, 2]: 48.6 µM

Compound: C=C1C(CSc2nnnn2C)=C(C(=O)O)N2C(=O)C(=CC(=O)OC(C)(C)C)C2S1(=O)=O (stereo not shown) [Compound 6f, Sodium Salt of Benzhydryl 7-[(Z)-(tert-Butylcarboxy)methylene]-3′-desacetoxy-2-exomethylidene-3′-[1″-methyl-1″H-tetrazol-5″-yl)thio]cephalosporinate Sulfone]
- IC50 [1, 2]: 2.38 µM

Compound: C=C1C(COC(C)=O)=C(C(=O)O)N2C(=O)/C(=C/C(=O)O)C2S1(=O)=O (stereo not shown) [Compound 6h, Disodium Salt of 7-[(Z)-(Carboxy)methylene]-2-(exomethylidene)-cephalosporinate Sulfone]
- IC50 [1, 3]: 2.49 µM
- IC50 (TEM-1, a penicillinase; [4]): 498 µM

Compound: C=C1C(C)=C(C(=O)O)N2C(=O)/C(=C/C(=O)O)C2S1(=O)=O (stereo not drawn) [Compound 6i, Disodium Salt 7-[(Z)(Carboxy)methylene]-3′-desacetoxy-2-(exo-methylidene)cephalosporinate Sulfone]
- IC50 [1, 3]: 36.8 µM
- IC50 (TEM-1, a penicillinase; [4]): 277 µM

Compound: N#C/C=C/C1=C(C(=O)O)N2C(=O)/C(=C/c3ccccn3)C2S(=O)(=O)C1 (stereo not shown) [Compound 13a, Sodium 3-[2′E-(Cyanoethenyl)]-1,1-dioxo-7Z-[(2″-pyridyl)methylidene]-3-cephem-4-carboxylate]
- IC50 [1]: 0.01 µM
- IC50 (TEM-1, a penicillinase; [5]): 2.7 µM

Compound: COC(=O)/C=C/C1=C(C(=O)O)N2C(=O)/C(=C/c3ccccn3)C2S(=O)(=O)C1 (stereo not shown) [Compound 13b, Sodium 1,1-Dioxo-3-[2′E-(methoxycarbonylethenyl)]-7Z-[(2″-pyridyl)methylidene]-3-cephem-4-carboxylate]
- IC50 [1]: 0.2 µM
- IC50 (TEM-1, a penicillinase; [5]): 0.02 µM

Compound: O=C(O)C1=C(/C=C/c2cccc[n+]2[O-])CS(=O)(=O)C2/C(=C\c3ccccn3)C(=O)N12 (stereo not shown) [Compound 13c, Sodium 1,1-Dioxo-3-{2′E-[2″-(pyridin-N-oxide)ethenyl]}-7Z-[(2′″-pyridyl)methylidene]-3-cephem-4-carboxylate]
- IC50 [1, 6]: 0.6 µM
- IC50 (TEM-1, a penicillinase; [5]): 0.006 µM

Compound: CC(C)(C)OC(=O)/C=C/C1=C(C(=O)O)N2C(=O)/C(=C/c3ccccn3)C2S(=O)(=O)C1 (stereo not shown) [Compound 13e, Sodium 1,1-Dioxo-3-[2′E-(t-butoxycarbonylethenyl)]-7Z-[(2″-pyridyl)methylidene]-3-cephem-4-carboxylate]
- IC50 [1, 6]: 1.48 µM

Compound: COC(=O)/C(Cl)=C/C1=C(C(=O)O)N2C(=O)/C(=C/c3ccccn3)C2S(=O)(=O)C1 (stereo not shown) [Compound 13f]
- IC50 [1, 6]: 0.2 µM
- IC50 (TEM-1, a penicillinase; [5]): 0.02 µM

Compound: O=C(O)/C=C/C1=C(C(=O)O)N2C(=O)/C(=C/c3ccccn3)C2S(=O)(=O)C1 (stereo not shown) [Compound 13g, Disodium 3-[2′E-Carboxyethenyl]-1,1-dioxo-7Z-[(2″-pyridyl)methylidene]-3-cephem-4-carboxylate]
- IC50 [1, 6]: 0.31 µM
- IC50 (TEM-1, a penicillinase; [5]): 2.52 µM

Compound: N#CC1=C(C(=O)O)N2C(=O)/C(=C/c3ccccn3)C2S(=O)(=O)C1 (stereo not shown) [Compound 19, Sodium 1,1-Dioxo-3-cyano-7Z-[(2′-pyridyl)methylidene]-3-cephem-4-carboxylate]
- IC50 [1]: 0.029 µM
- IC50 (TEM-1, a penicillinase; [5]): 2.34 µM

Compound: CC(=O)OCC1=C(C(=O)O)N2C(=O)C(=Cc3ccccn3)C2S(=O)(=O)C1 (stereo not shown) [II: R1=2-pyr, R3=CH2OAc, reference compound]
- IC50 [1]: 1.35 µM
- IC50 (TEM-1, a penicillinase): 14.4 µM

Compound: CC1=C(C(=O)O)N2C(=O)/C(=C/c3ccccn3)C2S(=O)(=O)C1 (stereo not shown) [II: R1=2-pyr, R3=CH3, reference compound]
- IC50 [1]: 6.1 µM
- IC50 (TEM-1, a penicillinase): 377 µM

Compound: Cn1nnnc1SCC1=C(C(=O)O)N2C(=O)C(=CC(=O)OC(C)(C)C)C2S(=O)(=O)C1 (stereo not shown) [II: R1=CO2-t-Bu, R3=CH2S(C2N4H3), reference compound]
- IC50 [1]: 112 µM
- IC50 (TEM-1, a penicillinase): 0.123 µM

Compound: CC1=C(C(=O)O)N2C(=O)C(=CC(=O)OC(C)(C)C)C2S(=O)(=O)C1 (stereo not shown) [II: R1=CO2-t-Bu, R3=CH3, reference compound]
- IC50 [1]: 199 µM
- IC50 (TEM-1, a penicillinase): 111 µM

Compound: C=C1C(=O)N2C(C(=O)O)=C(COC(C)=O)C(=C)S(=O)(=O)C12 (stereo not shown) [III: R3=CH2OAc, reference compound]
- IC50 [1]: 315 µM
- IC50 (TEM-1, a penicillinase): > 2000 µM

Compound: Sodium [2-1(Bisthiomethyl)exomethylene]-7-[(Z)-(2″-pyridinyl)methylene]-3′-desacetoxycephalosporinate [Compound 6g]
- IC50 [1, 3]: 0.51 µM
- IC50 (TEM-1, a penicillinase; [4]): 173 µM
